Assay results from paper PMC7801115, “Preclinical in vitro screening of newly synthesised amidino substituted benzimidazoles and benzothiazoles” (Journal of Enzyme Inhibition and Medicinal Chemistry, 2021).

How the values were obtained:
A549 [1] = assay: MTS cell viability (cytotoxicity) assay, 2D cell culture; type: cell-based; conditions: Homo sapiens, A549, 2D cell culture, 72 h, ±SD, N = 2, read-out: IC50 antitumor activity A549 2D
Procedure: (§1) Compounds are diluted 1:3. 500 nL (for 2 D cell culture) or 400 nL (for 3 D cell culture) of compound were transferred from mother plate to test plate by using Mosquito (TTP labtech). DMSO percentage in test concentrations was 0.5 − 1.0%. Starting concentration of the test compounds and standard compound doxorubicin was 50 µM (2 D cell culture) or 100 µM (3 D cell culture).
(§2) Cells were grown in 96 well cell star polystyrene plates. 10,000 cells/well were seeded in wells 4 h prior the treatment with different compounds concentrations and incubated for 72 h. A cell viability assay was performed according to the manufacturer’s instruction, using CellTiter 96 aqueous solution, MTS kit (Promega, Madison, WI, USA). After 0.5–2 h of cell incubation with MTS in 2 D cell culture, the plates were read using PE EnVision absorbance at 490 nm. […] Since we prefer homogeneous assays (mix and read procedures) and therefore MTS is more practical (one step less than MTT). MTS is more sensitive and accurate in comparison with MTT assay.
(§3) Calculation of IC50 data, curves and QC analysis is made by using Excel tools and GraphPadPrism software (La Jolla, CA), v. […] QC criteria parameters (Z', S:B, R2, HillSlope) were checked for every IC50 curve.

HCC827 = assay: as above; type: cell-based; conditions: Homo sapiens; HCC827, 2D cell culture, 72 h, MTS; ±SD, N = 2; read-out: IC50 antitumor activity HCC827 2D
Procedure: as §1, §2, §3

NCI-H358 [2] = assay: as above; type: cell-based; conditions: Homo sapiens; NCI-H358, 2D cell culture, 72 h, MTS; ±SD, N = 2; read-out: IC50 antitumor activity NCI-H358 2D
Procedure: as §1, §2, §3

A549 [3] = assay: BrdU proliferation assay, 3D cell culture; type: cell-based; conditions: Homo sapiens, A549, 3D cell culture, ±SD, N = 2
Procedure: (§4) Cells were grown in 96 well Perfecta 3 D hanging drop plates 5000 cell/well for 4 days until spheres were formed (and checked under the microscope). After sphere formation cells were treated with compounds followed by 72 h incubation. Cell viability assay was performed according to the manufacturer’s instruction, using CellTiter GLO 3 D for 3 D cell culture (Promega); cell incubation was 5 min on the shaker followed by 25 min incubation in the dark. Plates were read using PE EnVision luminescence. The results for each of tested compounds are reported as growth percentages from two independent concentrations curves compared with the untreated control cells after drug exposure.
(§5) Proliferation assay was performed using Cell Proliferation ELISA, BrdU (Sigma, St. Louis, MO, USA). Briefly, 48 h hours after compound addition, 10 µM of BrdU was added to each well and incubated for following 24 h. After incubation, single cell suspension was made for 3 D cell culture in the new 96 well plate. Plates were centrifuged and supernatants were removed from each plate (for 2 D and 3 D cell culture) followed by 60 min incubation at 60° C. The rest of the proliferation assay was performed according to the manufacturer instructions.
(§6) Calculation of IC50 data, curves and QC analysis is made by using Excel tools and GraphPadPrism software (La Jolla, CA), v. 5.03. In brief, individual concentration–effect curves are generated by plotting the logarithm of the tested concentration of tested compounds (X) versus corresponding percent inhibition values (Y) using least squares (ordinary) fit. […] QC criteria parameters (Z', S:B, R2, HillSlope) were checked for every IC50 curve.

NCI-H358 [4] = assay: BrdU proliferation assay, 3D cell culture; type: cell-based; conditions: Homo sapiens, NCI-H358, 3D cell culture, ±SD, N = 2
Procedure: as §4, §5, §6

[5] = Metabolic stability in liver microsomes; type: in vitro ADME; conditions: 60 min
Procedure: Tested compounds (final concentration of 1 µM, 0.1% DMSO), as well as testosterone and propranolol as positive controls and caffeine as negative control were incubated in phosphate buffer (50 mM, pH 7.4) for 60 min at 37 °C with liver microsomes (human and mouse) in the absence and presence of the NADPH cofactor. The NADPH generating system was prepared in phosphate buffer and consisted of nicotinamide adenine dinucleotide phosphate (NADP, 0.38 mM), glucose-6-phosphate (1.49 mM), glucose-6-phosphate dehydrogenase (1.5 U) and magnesium chloride (0.1 mM). Aliquots were taken at different time points (0, 10, 20, 30, 45 and 60 min) and reaction was terminated by addition of a MeCN/MeOH (2:1) mixture, containing diclofenac as internal standard. Samples were then centrifuged (at 4500 rpm, at 4 °C, for 30 min) and resulting supernatants were subjected to LC-MS/MS analysis. The in vitro half life (t½) was determined from the slope of the linear regression of ln % parent compound remaining versus incubation time. In vitro intrinsic clearance, expressed as µl/min/mg liver, was determined from in vitro half life (t½) and normalised for the protein concentration in the incubation mixture. Predicted in vivo hepatic clearance was determined from in vitro intrinsic clearance assuming 52.5 mg of protein/g of liver and using constant values for liver weight/body weight [g/kg] (25.7 for human, 87.5 for mouse) and liver blood flow (LBF) [ml/min/kg] (21 for human and 131 for mouse).
All ADME samples were analysed on a Sciex API 4000 or Sciex API4500 Triple Quadrupole Mass Spectrometer (Sciex, Framingham, MA, USA) coupled to a UHPLC System (Shimadzu Nexera X2; Shimadzu, Kyoto, Japan). Samples were injected onto an UPLC column (HALO2 C18, 2.1 × 20 mm, 2 µm or Phenomenex Luna Omega Polar C18, 30 × 2.1 mm, 1.6 µm) and eluted with a gradient at temperature of 50 °C. The mobile phase was composed of acetonitrile (with 0.1% formic acid) and 0.1% formic acid in deionised water. A total run time was 1 or 1.5 min, with the flow rate of 0.7 ml/min (under gradient conditions). A positive ion mode with turbo spray, an ion source temperature of 500 °C and a dwell time of 150 ms were utilised for mass spectrometric detection. Multiple reaction monitoring (MRM) was used at the specific transitions for each compound/control tested: compound 5c: 361.9 → 304.9; compound 5d: 344.8 → 287.9; compound 5e: 349.8 → 292.9; compound 5 g: 350.8 → 293.9; compound 5 h: 344.0 → 286.9; compound 6a: 276.9 → 220.0; compound 5 b: 319.0 → 262.0; compound 6 b: 302.1 → 245.1; compound 6c: 344.9 → 288.0; compound 6d: 333.0 → 276.0; compound 6e: 316.1 → 259.0; compound 6f: 327.1 → 270.0; compound 6 g: 377.1 → 320.1; testosterone: 289.3→ 97.1; propranolol: 260.1 → 182.8; caffeine: 195.2 → 138.1; acebutolol: 337.2 → 116.2, nicardipine: 480.2 → 315.0; verapamil: 455.4 → 165.1; amprenavir: 506.2 → 245.4; diclofenac: 296.1 → 213.7 or 296.2 → 215.3; eucatropine: 292.2 → 109.1; benfluorex: 352.1 → 230.3, and warfarin: 309.2 → 163.2

## c1ccc2c(c1)cc(-c1nc3cc(C4=NCCCN4)ccc3[nH]1)c1ccccc12 [Compound 6g, 2-(Phenanthrene-9-yl)-5(6)–(3,4,5,6-tetrahydropyrimidin-1-ium-2-yl)benzimidazole chloride]
A549 [1]
  IC50: > 50 µM
HCC827
  IC50: > 50 µM
NCI-H358 [2]
  IC50: > 50 µM
A549 [3]
  IC50: > 100 µM
NCI-H358 [4]
  IC50: > 100 µM
[5]
  Microsomes (1 µM) Predicted in vivo hep CL, Human: <30 %LBF
